Earlier results, collected in US12213962B2, “Drug resistant immunotherapy for treatment of a cancer” (Emory University, priority 2009, dated 2025).

Test system: AG104 sarcoma cells
Details: mice transplanted with non-modified, TMTX-sensitive cells

COc1cc(NCc2ccc3nc(N)nc(N)c3c2C)cc(OC)c1OC [TMTX, trimetrexate]
effect on efficacy of anti-CD137 antibody: reduced the efficacy
